Patent publication US20230172877A1, “METABOLITES RELEASED FROM APOPTOTIC CELLS ACT AS NOVEL TISSUE MESSENGERS” (University of Virginia Patent Foundation, priority 2020, published 2023)
Each block holds one compound with its values, some of them ahead of it. Peptide text beside a SMILES is read from it. * marks the point of attachment. Cbz = O=C(OCc1ccccc1)*; CH2F = FC*

Key:
[1] = test system: Jurkat cells, A549 lung epithelial cells, and HCT116 colonic epithelial cells; assay: Apoptosis-dependent release of conserved metabolites (analytical kits) with or without caspase inhibition; format: cell-based, human; details: 50 uM zVAD pre-treatment for 10 min; UV, ABT-737, TRAIL
Method: A549 cells were treated with 10 µM ABT-737 or exposed 600mJ cm^-2 and incubated for twenty-four hours. HCT-116 cells were treated with 10 µM ABT-737 or 100 ng ml^-1 TRAIL and incubated for 24 hours. All cells were pre-treated for 10 min with 50 uM zVAD prior to apoptosis induction in indicated experiments. All cells were incubated at 37° C. with 5% CO2 for indicated times.
Metabolite detection. Spermidine detection was measured using a colorimetric kit (Cloud-Clone Corp.) via manufacturers’ protocol. Briefly, supernatants taken from cells under specified conditions were centrifuged at 1000 x g for twenty minutes. All reagents were brought to room temperature prior to use. […] 90 µl of substrate solution was added to each well and incubated for 10 minutes at 37° C. after which 50 µl of stop solution was added, the plate was mixed and immediately measure at 450 nm on a plate reader (Flex station 3). […]
ATP was measure using a luciferase-based kit (Promega) via manufactures’ protocol. […] Luminescence was immediately measure on the Flex Station 3. […]
Glycerol-3-phosphate and creatine were measured based on manufacturers’ protocols (Abcam). […] OD at 450 nm or fluorescence at Ex/Em 535/587 was measured for glycerol-3-phosphate and creatine, respectively.
To test other cell types and additional apoptotic modalities, we analyzed the release of four ‘conserved metabolites’ via analytical kits. […]

[2] = exogenous supplementation, reference 13; cited from earlier work
Panx1 = target: T1, Panx1 (Homo sapiens, UniProt Q96RD7); assay: Panx1-dependent metabolite release from apoptotic Jurkat T cells with Panx1 inhibitors; format: cell-based; details: UV-induced apoptosis; spironolactone 50 µM, trovafloxacin 25 µM
T1 construct: host or cells: Jurkat E6.1 T cells (wild type), apoptotic
T1 sequence (Q96RD7 1-379 limits assumed): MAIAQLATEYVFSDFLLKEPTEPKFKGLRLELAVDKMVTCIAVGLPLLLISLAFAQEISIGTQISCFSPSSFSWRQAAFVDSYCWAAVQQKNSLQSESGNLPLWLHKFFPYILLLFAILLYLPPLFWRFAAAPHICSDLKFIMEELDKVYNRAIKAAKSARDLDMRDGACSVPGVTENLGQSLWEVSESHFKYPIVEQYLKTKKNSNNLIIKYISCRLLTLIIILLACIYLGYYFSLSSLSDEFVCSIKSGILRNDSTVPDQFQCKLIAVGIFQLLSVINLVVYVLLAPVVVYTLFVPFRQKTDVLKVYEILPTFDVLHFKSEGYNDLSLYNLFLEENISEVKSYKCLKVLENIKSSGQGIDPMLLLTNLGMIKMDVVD
Method: Apoptosis induction. Wild type Jurkat E6.1 (ATCC) or dominant negative Pannexinl-expressing (Panxl-DN)^10 cells were resuspended in RPMI-1640 containing 1% BSA, 1% PSQ, and 10 mM HEPES and treated with 250 ng ml^-1 anti-Fas (clone CH11), 10 µM ABT-737, or exposed to 150 mJ cm^-2 ultraviolet C irradiation for 1-2 min (Stratalinker). Jurkat cells were incubated for 4 hours after apoptosis induction. For apoptosis induction in the presence of Panx1 inhibitors, Jurkat cells were treated with spironolactone (50 µM) or trovafloxacin (25 µM) in RPMI containing 1% BSA and 1% PSQ.
For untargeted metabolomics analysis through Metabolon, recovery standards were added to samples in order to monitor QC of the analysis. Samples were methanol precipitated under shaking for 2 minutes. […] Samples were analyzed under 4 different conditions; two for analysis by two separate reverse phase (RP)/UPLC-MS/MS methods with positive ion mode ESI, one for analysis by RP/UPLC-MS/MS with negative ion mode ESI, and one for analysis by HILIC/UPLC-MS/MS with negative ion mode ESI. […]
During the above analyses of EXAMPLE 1, it was noted that despite the many cellular metabolites detected in the pellet, only a subset is released; further, even within a known metabolic pathway, only some but not others were released. […]

arthritis = details: FBP alone, reference 26; cited from earlier work

SMILES: COC(=O)C[C@H](NC(=O)[C@H](C)NC(=O)[C@@H](NC(=O)OCc1ccccc1)C(C)C)C(=O)CF [zVAD, zVAD-FMK] (Cbz-Val-Ala-Asp(OMe)-CH2F)
Apoptosis-dependent release of the tested metabolites with caspase inhibition [1]: attenuation

SMILES: NCCCCNCCCN [spermidine]
Effect on inflammation and longevity [2]: can reduce inflammation and improve longevity

Apoptotic metabolites in Jurkat T cell supernatants when Panx1 was inhibited (Panx1): reduced
SMILES: CC(=O)S[C@@H]1CC2=CC(=O)CC[C@]2(C)[C@H]2CC[C@@]3(C)[C@@H](CC[C@@]34CCC(=O)O4)[C@H]12 [Spiro, spironolactone]

Apoptotic metabolites in Jurkat T cell supernatants when Panx1 was inhibited (Panx1): reduced
SMILES: N[C@@H]1[C@H]2CN(c3nc4c(cc3F)c(=O)c(C(=O)O)cn4-c3ccc(F)cc3F)C[C@@H]12 [Trovan, trovafloxacin]

SMILES: O=C(COP(=O)(O)O)[C@@H](O)[C@H](O)[C@H](O)COP(=O)(O)O [fructose 1,6-bisphosphate (FBP), fructose 1,6-bisphosphate]
Role in arthritis (arthritis): can have ameliorative roles in arthritis
